Results published in patent US5112615A, “Soluble hirudin conjugates” (New England Deaconess Hospital Corporation, priority 1990, dated 1992).

How the values were obtained:
[1] = test system: blood; experiment: Thrombin time of blood containing inhibitor; conditions: 0.2 ATU/ml blood sample
Experimental: In addition, hirudin conjugated to a stable, soluble molecule increases hirudin stability in the bloodstream. For example, 0.1 anti-thrombin units (ATU) of hirudin conjugate standard/ml of blood increases normal thrombin time to 45 seconds. A blood sample containing 0.2 ATU of unconjugated hirudin/ml increases patient thrombin time to 90 seconds. Using this knowledge, the amount of hirudin in a patient's plasma can be calculated to be 0.15 ATU if the patient's thrombin time is determined to be 68 seconds.

[2] = test system: thrombin-mediated platelet aggregation; experiment: Inhibition of thrombin-mediated platelet aggregation and simultaneous ATP release (whole blood platelet aggregometer); format: cell-based; conditions: Thrombin 0.1 NIHU
Description: Investigation of the biologic activity of hirudin covalently linked to albumin is examined by inhibiting thrombin-mediated platelet aggregation. A whole blood platelet aggregometer (Chronolog Corp., Havertown, PA) is used to measure platelet aggregation and simultaneous ATP release. Platelet aggregation is selected to quantify inhibition of thrombin events other than fibrin formation.

[3] = target: thrombin (Homo sapiens, UniProt P00734); experiment: Kinetic evaluation of thrombin inhibition (Lineweaver-Burke and Dixon plot analyses); format: biochemical
Description: Using a known amount of thrombin, a standard curve is constructed with known amount of hirudin or hirudin analog by adding hirudin to thrombin, and measuring residual thrombin activity using […] substrate S-2238. Thrombin inhibition by derivatized hirudin (hirudin-SPDP) or immobilized hirudin (the polyethylene terphthalate material with immobilized hirudin) is then compared to nonderivatized hirudin values by equating ED50 values using 10 NIH units/ml thrombin, and measuring residual thrombin activity.
Peak 3 conjugate material (shown in FIG. 4C and lane A in FIG. 5A) is evaluated by kinetic analysis. Kinetic evaluation of the ability of the peak 3 conjugate to inhibit thrombin activity is compared to hirudin alone. […] These determinations are made by Lineweaver-Burke and Dixon plot analyses. The inhibitor constant for hirudin is determined to be 1.7×10^-12. The inhibitor constant for the conjugate is 1.8×10^-11. There is a 10-fold loss in binding affinity when comparing the Ki values of hirudin to the conjugate, respectively. In a biologic or physiologic system, the different abilities of hirudin and conjugate to inhibit thrombin are insignificant.

hirudin
thrombin time [1]: 90 s | % Inh. ATP Release ([2]; inhibitor 0.12 ATU): 56% | % Inh. Plate. Aggreg. ([2]; inhibitor 0.12 ATU): 52% | ATP Release ([2]; inhibitor 0.12 ATU): 0.60 µM | Aggreg. OHMS/6 min. ([2]; inhibitor 0.12 ATU): 15.7 OHMS/6 min. | % Inh. ATP Release ([2]; inhibitor 1.15 ATU): 100% | % Inh. Plate. Aggreg. ([2]; inhibitor 1.15 ATU): 100% | ATP Release ([2]; inhibitor 1.15 ATU): 0 µM | Aggreg. OHMS/6 min. ([2]; inhibitor 1.15 ATU): 0 OHMS/6 min. | type of inhibition [3]: noncompetitive inhibitor of a linear mixed type
